From patent EP4624471A1, “PKMYT1 INHIBITOR, PREPARATION METHOD THEREFOR, AND PHARMACEUTICAL COMPOSITION AND USE THEREOF” (Shanghai Qilu Pharmaceutical Research and Development …, priority 2022, dated 2024)
pIC50: −log10 of the molar value. In brackets after ≈: the same amount, converted by molar mass. Blank lines part the entries; values can stand above or below the compound they belong to.

Tests used:
[1] = Metabolic stability in human hepatocytes; settings: for hepatocyte CLint at 1 µM: In vitro Clint (µL/min/10^6 cells); for half-life at 1 µM: t1/2 (min)
[2] = Metabolic stability in mouse liver microsomes
[3] = TS-FeSSIF & TS-FeSSGF solubility test; settings: pH 5
[4] = target: T1, PKMYT1 enzyme (Homo sapiens, UniProt Q99640); test: PKMYT1 enzyme inhibition activity, ADP-GLO method; format: biochemical; settings: PKMYT1 enzyme 10 nM, ATP 5 µM, 37°C 90 minutes; read-out: ADP-GLO IC50
T1 construct: purchased Thermo Scientific A33387
T1 sequence (Q99640 1-499): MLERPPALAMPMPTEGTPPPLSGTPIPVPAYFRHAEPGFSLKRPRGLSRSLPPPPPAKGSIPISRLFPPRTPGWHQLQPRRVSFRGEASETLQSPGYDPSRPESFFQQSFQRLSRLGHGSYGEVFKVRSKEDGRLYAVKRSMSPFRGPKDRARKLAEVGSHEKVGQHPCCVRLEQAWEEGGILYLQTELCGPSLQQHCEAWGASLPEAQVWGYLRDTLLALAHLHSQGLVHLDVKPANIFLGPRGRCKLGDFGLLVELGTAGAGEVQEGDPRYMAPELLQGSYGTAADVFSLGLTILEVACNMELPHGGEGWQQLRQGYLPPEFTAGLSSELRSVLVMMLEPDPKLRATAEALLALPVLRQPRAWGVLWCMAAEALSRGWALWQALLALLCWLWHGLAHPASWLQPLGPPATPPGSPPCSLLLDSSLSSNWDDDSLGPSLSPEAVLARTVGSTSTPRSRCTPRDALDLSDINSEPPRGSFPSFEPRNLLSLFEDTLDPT

[5] = test system: HCC1569 cells; test: Cytostatic activity, CTG assay (HCC1569); format: cell-based; settings: 5 days
Description: Biological test example 2. Cytostatic activity of compounds of the present disclosure
CTG assay (HCC1569) was used to verify the biological activity of some of the example compounds of the present disclosure.
HCC1569 cells were purchased from ATCC (Cat. No.: CRL-2330) and cultured in a 37°C, 5% CO2 cell culture incubator. HCC1569 complete medium: RPMI-1640 liquid medium (Cat. No.: Gibico 11875-093), 20% FBS (Cat. No.: Gibico 10099-141), 1% Pen Strep (Cat. No.: Gibico 15070-063).
HCC1569 cells in a 75 cm^2 culture flask were digested with 2 mL of trypsin for 2-3 min, and then neutralized with 2 mL of 1640 complete medium. The mixture was centrifuged at 1200 rpm for 5 minutes. Cells were resuspended using 4 mL of 1640 complete medium. 500 µL of cell suspension was taken for cell counting using Vi-CELL-XR cell counter.
Using a Multidrop instrument, the HCC1569 cells were seeded in a 384-well plate at a density of 1000 cells per well (50 µL 1640 Growth Media) and administrated 24 hours later.
Using an ultra-micro pipette, the test compound (concentration: 3.33 mM, dissolved in DMSO) was diluted with 10 µM as the highest starting concentration, and then sequentially diluted in 10 gradients at a ratio of 1:3 (10000 nM, 3333 nM, 1111 nM, 370 nM, 123 nM, 41 nM, 13.7 nM, 4.6 nM, 1.5 nM, 0.5 nM) for administration treatment, with two duplicate wells for each concentration; 14 wells for positive and negative controls were set, with the positive control being the duplicate wells of 10 µM positive compound and the negative control being the duplicate wells of DMSO.
After the administration was completed, the cells were placed in a 37°C incubator for further culture for 5 days. After 5 days, 25 µL of CTG buffer was added to each well for CTG assay detection, and analyzed using a microplate reader. CTG readings were analyzed.
a = CTG value (highest concentration), b = CTG value (blank well), x = CTG value(test well).
IC50 was calculated using GraphPad PRISM 8.
Log10 (A compound concentration) was used for statistical calculation. (2) The data were input into GraphPad PRISM 8, and Analysis was selected. (3) Nonlinear regression (curve fit) was selected. (4) Log (inhibitor) vs. response-Variable slope was selected. (5) The calculation formula was selected, and the calculation was carried out according to the following formula: Y = Bottom + (Top-Bottom)/(1+10^((LogIC50-X)*HillSlope)), X: logarithm of dose or concentration, Y: response value, Top and Bottom: peak and bottom values. (6) The data were fitted to obtain IC50 values. (7) The fitting conditions were adjusted according to the specific data. Appropriate Constraint conditions were adjusted for Bottom, Top, and HillSlope. The curve that best fits the actual situation has been reached.

[6] = Tissue distribution: tumor tissue concentration in OVCAR3 tumor-bearing mice; settings: BALB/c nude mice, 10 mpk p.o. BIDx28D; for Tumor tissue concentration (ng/g) 2 h after administration: 2 h after last administration; for Tumor tissue concentration (ng/g) 6 h after administration: 6 h after last administration
[7] = physchem; settings: pH 5, Solubility (µg/mL)
[8] = 24 h, pH 5

Compound: Cc1cc(F)c(O)c(C)c1-n1c(N)c(C(N)=O)c2cc(C(F)(F)F)c(C)nc21 (atropisomer, axis not shown) [Example 59.1]
hepatocyte CLint at 1 µM ([1]; Female): 10 µL/min/1e6 cells
hepatocyte CLint at 1 µM ([1]; Male): 7 µL/min/1e6 cells
half-life at 1 µM ([1]; Female): 2.3 h
half-life at 1 µM ([1]; Male): 3.3 h
half-life at 1 µM ([2]; liver microsomes): 3.08 h
microsomal CLint at 1 µM ([2]; liver microsomes): < 7.5 µL/min/mg
solubility at 24 h ([3]; ts-fessgf): 253 µg/mL (≈ 639 µM)
solubility at 24 h ([3]; ts-fessif): 352 µg/mL (≈ 888 µM)
pIC50 [4]: 8.35
pIC50 ([5]; Homo sapiens, HCC1569, 120 h): 7.25
Tumor tissue concentration (ng/g) 2 h after administration [6]: 633 ng/g
Tumor tissue concentration (ng/g) 6 h after administration [6]: 231 ng/g

half-life at 1 µM ([2]; microsomes): 0.377 h
microsomal CLint at 1 µM ([2]; microsomes): 61.3 µL/min/mg
solubility at 24 h [7]: 31.6 µg/mL (≈ 97.4 µM)
Tumor tissue concentration (ng/g) 2 h after administration [6]: 172 ng/g
Tumor tissue concentration (ng/g) 6 h after administration [6]: 18 ng/g
Solubility [8]: 33.9 µg/mL (≈ 105 µM)
Compound: Cc1cc2c(C(N)=O)c(N)n(-c3c(C)ccc(O)c3C)c2nc1C (atropisomer, axis not shown) [RP-6306, reference compound]

Compound: Cc1cc(F)c(O)c(C)c1-n1c(N)c(C(N)=O)c2cc(Br)c(C)nc21 (atropisomer, axis not shown) [Example 58.1]
half-life at 1 µM ([2]; liver microsomes): 1.16 h
microsomal CLint at 1 µM ([2]; liver microsomes): 19.9 µL/min/mg
pIC50 [4]: 8.51
pIC50 ([5]; Homo sapiens, HCC1569, 120 h): 7.08

Compound: Cc1nc2c(cc1Br)c(C(N)=O)c(N)n2-c1c(C)c(O)cc(F)c1C (racemic) [Example 104]
pIC50 [4]: 8.49
pIC50 ([5]; Homo sapiens, HCC1569, 120 h): 7.82

Compound: Cc1c(O)cc(F)c(C)c1-n1c(N)c(C(N)=O)c2cc(C3CC3)cnc21 [Example 80]
pIC50 [4]: 8.45
pIC50 ([5]; Homo sapiens, HCC1569, 120 h): 7.80

Compound: Cc1cc(F)c(O)c(C)c1-n1c(N)c(C(N)=O)c2cc(N3CCC3)c(C)nc21 (atropisomer, axis not shown) [Example 173.2]
pIC50 [4]: 8.35
pIC50 ([5]; Homo sapiens, HCC1569, 120 h): 7.19

Compound: CCc1cc2c(C(N)=O)c(N)n(-c3c(C)c(O)cc(F)c3C)c2nc1C (atropisomer, axis not shown) [Example 132]
pIC50 [4]: 8.05
pIC50 [5]: 7.52

Compound: Cc1c(O)cc(F)c(C)c1-n1c(N)c(C(N)=O)c2cc3ccccc3nc21 [Example 191]
pIC50 [4]: 8.55
pIC50 ([5]; Homo sapiens, HCC1569, 120 h): 7.80

Compound: C=C(C)c1cnc2c(c1)c(C(N)=O)c(N)n2-c1c(C)c(O)cc(F)c1C (atropisomer, axis not shown) [Example 133.1]
pIC50 [4]: 8.61
pIC50 [5]: 7.92
